The values that follow come from US7745402B2, “Method of treating pancreatitis” (Lundbeck Inc., priority 2005, dated 2010).

One assay deals with macrophages. Kind of assay: In vivo macrophage homing to the pancreas, bioluminescence imaging. The settings on record: single dose of hemin 24 h prior to cell transfer. On the set-up: species or system FVB/n mice. The procedure:
FIG. 4: Effect of hemin on in vivo macrophage homing to the pancreas using bioluminescence imaging. (A) Experimental scheme of cell transfer. Hemin (H) was injected 3× intraperitoneally into luciferase-overexpressing (+/+) mice, then peritoneal cells were harvested and macrophages were selected using anti-Mac-1 magnetic beads. Luciferase/Mac-1 double-positive cells were transferred intraperitoneally to wild-type (luciferase −/−) mice that were preinjected with one dose of H or vehicle (V) 24 h prior to the transfer. This hemin injection is necessary to induce pancreatic chemokines (FIG. 3C). (B) Live images of recipient intact anesthetized mice were taken 5 min (a) or 24 h (b) after cell transfer. Livers and pancreata were removed 24 h after the transfer followed by imaging (c). The signal intensity scale bar is shown below each image. (C) A duplicate of the pancreata shown in image c of panel B (from recipients receiving donor cells from H-injected animals) was double-stained with antibodies to luciferase and F4/80. […] Bar in panel c=50 μm.
The present invention offers a novel approach of immune-mediated therapy via the unanticipated effect of hemin on leukocyte recruitment to the pancreas. Based on a mouse animal model of pancreatitis, the therapeutic approach of the present invention has applicability to other mammalian, particularly human, pancreatitis. […]

A further assay concerns CDD-induced pancreatitis. The experiment in a line: Choline deficient diet (CDD)-induced pancreatitis after hemin pretreatment.
The next assay deals with HO-2. The experiment in a line: HO-2 immunoblot of mouse tissue homogenates after hemin. It counts as in vivo, mice. The settings on record: any of the tissues; hemin 3× during 7 d. In general terms: Immunoblotting shows a protein as a band on a membrane.
Another assay deals with HO-1. Kind of assay: Double-staining of pancreas for HO-1 and cell markers after hemin and CDD. The settings on record: hemin pretreatment, 3 days of CDD. The class given is in vivo, mice. The source says: Pancreata of mice pretreated with hemin followed by 3 days of CDD feeding were isolated, sectioned, then double-stained using antibodies to HO-1 (a, d and g) and keratin polypeptide 8 (epithelial marker, b), vimentin (mesenchymal marker, e) or MJ7/18 (endothelial marker, h). Merging of the indicated images is shown in the right panels. Scale bar in panel i=20 μm. HO-1 staining of pancreas from mice treated with vehicle alone (without CDD) afforded background staining (inset of panel a).
Animal procedures. Mice were euthanized by CO2 inhalation then pancreata and lungs were rapidly removed, divided into 3-4 pieces, and blood was collected by intracardiac puncture. […] Immunofluorescence staining was performed as described (29) and images were analyzed using confocal microscopy. Total tissue lysates were prepared by homogenization in Laemmli sample buffer and analyzed by SDS-PAGE followed by transfer to membranes for blotting and protein visualization by enhanced chemiluminescence. Trypsin activity was determined using a fluorimetric assay and the substrate Boc-Gln-Ala-Arg-MCA (Peptides International Inc.; Louisville, Ky.), and comparison to a standard curve generated with purified trypsin as described. […] Lung injury after caerulein administration was assessed as previously described, based on neutrophilic infiltration, pulmonary edema, alveolar distension and collapse. […]

Procedure for CDD-induced pancreatitis: (D-F) Mice were injected with saline, hemin, or vehicle (8 mice/group)3×(arrows) followed by feeding with CDD for 3 d then harvesting of the pancreata.
Balb/c mice were housed under pathogen-free conditions and utilized in two established models of pancreatitis. […] For the pancreatitis induced by feeding a choline/methionine-deficient diet (CDD), young female mice (15-19 g) were fasted then fed CDD (Harlan Teklad; Madison Wis.) supplemented with 0.5% DL-ethionine (Sigma; St. Louis, Mo.) or normal chow (control group) for 3 d, then switched to normal diet for 1, 2 or 5 d.
Animal procedures. Mice were euthanized by CO2 inhalation then pancreata and lungs were rapidly removed, divided into 3-4 pieces, and blood was collected by intracardiac puncture. Individual lung and pancreas fragments were immediately fixed in 10% formalin, embedded in OCT (Miles; Elkhart, Ind.) or snap-frozen in liquid N2 for subsequent protein, enzyme, and RNA analysis. […] Fixed tissues were sectioned then stained using hematoxylin and eosin (performed by Histo-tec Laboratory; Hayward, Calif.).

With Hemin, the “macrophage recruitment to the pancreas after hemin priming of recipients” value with macrophages is “stimulates pancreatic chemokine production and triggers migration of macrophages to the pancreas”. For the same substance, the pancreatic injury entry with CDD-induced pancreatitis (figure title) is reported as “inhibition of pancreatic injury”. Besides, the “pancreas histology (edema, necrosis)” value in the assay with CDD-induced pancreatitis (hematoxylin and eosin, mice that survived CDD feeding) is “marked pancreas edema (E) and necrosis (N) in the saline (not shown) and vehicle injected mice, as compared with the “hemin” group”. In addition, the survival result with CDD-induced pancreatitis (hemin 3× then CDD 3 d, 8 mice/group, p<0.03 vs controls (saline+vehicle)) was “survival difference was significant”. The HO-2 levels result with HO-2 is “did not change”. Also, the “cell type of pancreatic HO-1 induction” value in the assay on HO-1 was “occurs in non-epithelial cells”.
